The target of this assay is T1, Recombinant human cathepsin A (Homo sapiens, UniProt P10619).
T1 construct: Recombinant human cathepsin A (residues 29-480, with a C-terminal 10-His tag); 10-His (C); purchased R&D Systems 1049-SE
T1 sequence (P10619 29-326 limits assumed): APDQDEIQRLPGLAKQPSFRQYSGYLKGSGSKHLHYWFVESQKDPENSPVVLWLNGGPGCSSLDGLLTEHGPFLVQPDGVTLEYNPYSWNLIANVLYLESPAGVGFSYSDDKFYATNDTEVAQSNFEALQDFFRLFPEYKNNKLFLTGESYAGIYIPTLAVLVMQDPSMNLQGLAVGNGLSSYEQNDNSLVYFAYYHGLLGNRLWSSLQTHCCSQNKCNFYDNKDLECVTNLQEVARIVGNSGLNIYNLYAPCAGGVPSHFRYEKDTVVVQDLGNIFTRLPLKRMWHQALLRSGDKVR
T1 sequence (P10619 327-480 limits assumed): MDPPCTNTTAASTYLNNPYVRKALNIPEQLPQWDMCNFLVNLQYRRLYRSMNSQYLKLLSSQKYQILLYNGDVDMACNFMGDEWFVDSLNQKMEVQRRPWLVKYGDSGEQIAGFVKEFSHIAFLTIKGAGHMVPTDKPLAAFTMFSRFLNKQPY
Description: Cathepsin A inhibitory activity. The format is biochemical. The conditions noted are these: activated recombinant human cathepsin A 833 ng/ml, Bodipy FL-labeled bradykinin substrate 2 μM, pH 5.5, room temperature. The procedure: a) Cathepsin A Inhibitory Activity
Recombinant human cathepsin A (residues 29-480, with a C-terminal 10-His tag; R&D Systems, #1049-SE) was proteolytically activated with recombinant human cathepsin L (R&D Systems, #952-CY). Briefly, cathepsin A was incubated at 10 μg/ml with cathepsin L at 1 μg/ml in activation buffer (25 mM 2-(morpholin-4-yl)-ethanesulfonic acid (MES), pH 6.0, containing 5 mM dithiothreitol (DTT)) for 15 min at 37° C. Cathepsin L activity was then stopped by the addition of the cysteine protease inhibitor E-64 (N-(trans-epoxysuccinyl)-L-leucine-4-guanidinobutylamide; Sigma-Aldrich, # E3132; dissolved in activation buffer/DMSO) to a final concentration of 10 μM.
The activated cathepsin A was diluted in assay buffer (25 mM MES, pH 5.5, containing 5 mM DTT) and mixed with the test compound (dissolved in assay buffer containing (v/v) 3% DMSO) or, in the control experiments, with the vehicle in a multiple assay plate. After incubation for 15 min at room temperature, as substrate then bradykinin carrying an N-terminal ®Bodipy FL (4,4-difluoro-5,7-dimethyl-4-bora-3a,4a-diaza-s-indacene-3-propionyl) label (JPT Peptide Technologies GmbH; dissolved in assay buffer) was added to the mixture. The final concentration of cathepsin A was 833 ng/ml and the final concentration of labeled bradykinin 2 μM. After incubation for 15 min at room temperature the reaction was stopped by the addition of stop buffer (130 mM 2-(4-(2-hydroxy-ethyl)-piperazin-1-yl)-ethanesulfonic acid, pH 7.4, containing (v/v) 0.013% ®Triton X-100, 0.13% Coating Reagent 3 (Caliper Life Sciences), 6.5% DMSO and 20 μM ebelactone B (Sigma, # E0886)).
Uncleaved substrate and product were then separated by a microfluidic capillary electrophoresis on a LabChip® 3000 Drug Discovery System (12-Sipper-Chip; Caliper Life Sciences) and quantified by determination of the respective peak areas. Substrate turnover was calculated by dividing product peak area by the sum of substrate and product peak areas, and the enzyme activity and the inhibitory effect of the test compound thus quantified. From the percentage of inhibition of cathepsin A activity observed with the test compound at several concentrations, the inhibitory concentration IC50, i.e. the concentration which effects 50% inhibition of enzyme activity was, calculated.

For `O=C(O)C[C@H](NC(=O)c1csc(-c2ccccc2F)n1)c1cccc(Cl)c1` [Example 43, (S)-3-(3-Chloro-phenyl)-3-{[2-(2-fluoro-phenyl)-thiazole-4-carbonyl]-amino}-propionic acid], the IC50 is 694 nM.

With `O=C(O)C[C@H](NC(=O)c1csc(-c2cccc(Cl)c2)n1)c1cccc(Cl)c1` [Example 44, (S)-3-(3-Chloro-phenyl)-3-{[2-(3-chloro-phenyl)-thiazole-4-carbonyl]-amino}-propionic acid], the IC50 is 2980 nM.

In the case of `O=C(O)C[C@H](NC(=O)c1csc(-c2ccc(Cl)cc2)n1)c1cccc(Cl)c1` [Example 45, (S)-3-(3-Chloro-phenyl)-3-{[2-(4-chloro-phenyl)-thiazole-4-carbonyl]-amino}-propionic acid], the IC50 is 3540 nM.

Turning to `O=C(O)C[C@H](NC(=O)c1csc(-c2ccc(C(F)(F)F)cc2)n1)c1cccc(Cl)c1` [Example 46, (S)-3-(3-Chloro-phenyl)-3-{[2-(4-trifluoromethyl-phenyl)-thiazole-4-carbonyl]-amino}-propionic acid], the IC50 is 10500 nM.

`Cc1ccccc1-c1nc(C(=O)N[C@@H](CC(=O)O)c2cccc(F)c2)cs1` [Example 47, (S)-3-(3-Fluoro-phenyl)-3-[(2-o-tolyl-thiazole-4-carbonyl)-amino]-propionic acid]: the IC50 came to 280 nM.

Consider `O=C(O)C[C@H](NC(=O)c1csc(-c2ccccc2)n1)c1cccc(F)c1` [Example 48, (S)-3-(3-Fluoro-phenyl)-3-[(2-phenyl-thiazole-4-carbonyl)-amino]-propionic acid], for which the IC50 was 955 nM.

As for `O=C(O)C[C@H](NC(=O)c1csc(-c2ccccc2F)n1)c1cccc(F)c1` [Example 49, (S)-3-(3-Fluoro-phenyl)-3-{[2-(2-fluoro-phenyl)-thiazole-4-carbonyl]-amino}-propionic acid], the IC50 turned out to be 724 nM.

`O=C(O)C[C@H](NC(=O)c1csc(-c2ccc(C(F)(F)F)cc2)n1)c1cccc(F)c1` [Example 50, (S)-3-(3-Fluoro-phenyl)-3-{[2-(4-trifluoromethyl-phenyl)-thiazole-4-carbonyl]-amino}-propionic acid]: the IC50 was above 10000 nM.

For `O=C(O)C[C@H](NC(=O)c1nc(-c2ccccc2)cs1)c1ccc(F)cc1` [Example 51, (S)-3-(4-Fluoro-phenyl)-3-[(4-phenyl-thiazole-2-carbonyl)-amino]-propionic acid], the IC50 turned out to be 457 nM.

As for `COc1cccc([C@H](CC(=O)O)NC(=O)c2csc(-c3ccccc3)n2)c1` [Example 52, (S)-3-(3-Methoxy-phenyl)-3-[(2-phenyl-thiazole-4-carbonyl)-amino]-propionic acid], the IC50 stood at 2860 nM.

With `O=C(O)C[C@H](NC(=O)c1nc(-c2ccccc2)cs1)c1ccccc1F` [Example 53, (S)-3-(2-Fluoro-phenyl)-3-[(4-phenyl-thiazole-2-carbonyl)-amino]-propionic acid], the IC50 is 1750 nM.

For the molecule `Cc1ccccc1-c1nc(C(=O)N[C@@H](CC(=O)O)c2ccc(F)cc2)cs1` [Example 54, (S)-3-(4-Fluoro-phenyl)-3-[(2-o-tolyl-thiazole-4-carbonyl)-amino]-propionic acid], the IC50 was determined as 303 nM.

As for `O=C(O)C[C@H](NC(=O)c1nc(-c2ccccc2)cs1)c1cccc(F)c1` [Example 55, (S)-3-(3-Fluoro-phenyl)-3-[(4-phenyl-thiazole-2-carbonyl)-amino]-propionic acid], the IC50 is 542 nM.

Regarding `O=C(O)C[C@H](NC(=O)c1csc(-c2ccccc2F)n1)c1ccc(F)cc1` [Example 56, (S)-3-(4-Fluoro-phenyl)-3-{[2-(2-fluoro-phenyl)-thiazole-4-carbonyl]-amino}-propionic acid], the IC50 was 1050 nM.

Take `O=C(N[C@H](C(=O)O)C1CCCCC1)c1csc(-c2cccc(Cl)c2)n1` [Example 57, (S)-{[2-(3-Chloro-phenyl)-thiazole-4-carbonyl]-amino}-cyclohexyl-acetic acid]: the 50% inhibitory concentration (IC50) was above 10000 nM.

Turning to `O=C(N[C@@H](Cc1ccc(Cl)cc1)C(=O)O)c1csc(-c2ccccc2)n1` [Example 58, (S)-3-(4-Chloro-phenyl)-2-[(2-phenyl-thiazole-4-carbonyl)-amino]-propionic acid], the IC50 amounted to 22000 nM.

`COc1ccc([C@H](CC(=O)O)NC(=O)c2csc(-c3ccccc3)n2)cc1` [Example 59, (S)-3-(4-Methoxy-phenyl)-3-[(2-phenyl-thiazole-4-carbonyl)-amino]-propionic acid]: the IC50 is 976 nM.

`COc1ccc([C@H](CC(=O)O)NC(=O)c2csc(-c3ccc(C(F)(F)F)cc3)n2)cc1` [Example 60, (S)-3-(4-Methoxy-phenyl)-3-{[2-(4-trifluoromethyl-phenyl)-thiazole-4-carbonyl]-amino}-propionic acid]: the IC50 came out at 14800 nM.

Consider `Cc1ccccc1-c1nc(C(=O)N[C@@H](CC(=O)O)c2ccccc2C(F)(F)F)cs1` [Example 61, (S)-3-[(2-o-Tolyl-thiazole-4-carbonyl)-amino]-3-(2-trifluoromethyl-phenyl)-propionic acid], for which the IC50 worked out at 670 nM.

`O=C(O)C[C@H](NC(=O)c1csc(-c2ccccc2)n1)c1ccccc1C(F)(F)F` [Example 62, (S)-3-[(2-Phenyl-thiazole-4-carbonyl)-amino]-3-(2-trifluoromethyl-phenyl)-propionic acid]: the IC50 was 2630 nM.

On to `Cc1ccccc1[C@H](CC(=O)O)NC(=O)c1csc(-c2ccccc2)n1` [Example 63, (S)-3-[(2-Phenyl-thiazole-4-carbonyl)-amino]-3-o-tolyl-propionic acid], for which the IC50 is 61 nM.

In the case of `COc1cccc([C@H](CC(=O)O)NC(=O)c2csc(-c3cccc(Cl)c3Cl)n2)c1OC` [Example 64, (S)-3-{[2-(2,3-Dichloro-phenyl)-thiazole-4-carbonyl]-amino}-3-(2,3-dimethoxy-phenyl)-propionic acid], the 50% inhibitory concentration (IC50) came out at 154 nM.

As for `O=C(O)C[C@H](NC(=O)c1nc(-c2ccccc2)cs1)c1cccc(Cl)c1` [Example 65, (S)-3-(3-Chloro-phenyl)-3-[(4-phenyl-thiazole-2-carbonyl)-amino]-propionic acid], the IC50 came out at 917 nM.

In the case of `O=C(O)C[C@H](NC(=O)c1csc(-c2cccc(Cl)c2Cl)n1)c1ccccc1C(F)(F)F` [Example 66, (S)-3-{[2-(2,3-Dichloro-phenyl)-thiazole-4-carbonyl]-amino}-3-(2-trifluoromethyl-phenyl)-propionic acid], the IC50 came to 619 nM.

Consider `O=C(O)C[C@H](NC(=O)c1csc(-c2cccc(Cl)c2Cl)n1)c1cccc(F)c1` [Example 67, (S)-3-{[2-(2,3-Dichloro-phenyl)-thiazole-4-carbonyl]-amino}-3-(3-fluoro-phenyl)-propionic acid], for which the IC50 is 254 nM.

As for `O=C(O)CC(NC(=O)c1nc(-c2ccccc2)cs1)c1ccccc1Cl` (centres unmarked) [Example 68, 3-(2-Chloro-phenyl)-3-[(4-phenyl-thiazole-2-carbonyl)-amino]-propionic acid], the IC50 came out at 455 nM.

`O=C(O)C[C@H](NC(=O)c1nc(-c2ccccc2)cs1)c1ccc(Cl)cc1` [Example 69, (S)-3-(4-Chloro-phenyl)-3-[(4-phenyl-thiazole-2-carbonyl)-amino]-propionic acid]: the IC50 was found to be 627 nM.

For the molecule `Cc1ccc(-c2nc(C)c(C(=O)N[C@@H](CC(=O)O)c3ccccc3C)s2)cc1` [Example 70, (S)-3-[(4-Methyl-2-p-tolyl-thiazole-5-carbonyl)-amino]-3-o-tolyl-propionic acid], the IC50 was above 10000 nM.

In the case of `Cc1ccccc1[C@H](CC(=O)O)NC(=O)c1csc(-c2cccc(Cl)c2Cl)n1` [Example 71, (S)-3-{[2-(2,3-Dichloro-phenyl)-thiazole-4-carbonyl]-amino}-3-o-tolyl-propionic acid], the IC50 turned out to be 126 nM.

For orientation: IC50 means the midpoint of a concentration-inhibition curve.

These data come from US9174952B2, “Substituted 3-thiazoloamino-propionic acid derivatives and their use as pharmaceuticals” (SANOFI, priority 2011, dated 2015).
